Results reported in US20080318943A1, “Compounds and Uses Thereof - 848” (ASTRAZENECA AB, priority 2007, published 2008).

Legend:
[1] = target: T1, GABAA2 receptors (α2, β3, γ2 receptor subunits transfected into Sf9 cells) (Homo sapiens, UniProt P18507+P47869); experiment: GABAA2 Binding Method ([3H]-Flunitrazepam displacement); details: [3H]-Flunitrazepam ~2 nM, α2β3γ2 Sf9 membranes, 1 hr at 4° C.
T1 construct: host or cells: Sf9 cells (membranes)
How it was run: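 Membranes from Sf9 cells expressing α2β3γ2 GABAA receptors incubated with ~2 nM (final) [3H]-flunitrazepam and test compound 1 h at 4 °C, then filtered on GF/B plates with cold-buffer washes. Flumazenil-defined controls; percent of control, IC50 and Ki calculated.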

[2] = target: T2, GABAA receptor α1β2γ2 (Homo sapiens, UniProt P14867+P18507); experiment: Two-electrode voltage-clamp potentiation of GABA EC10 current in Xenopus oocytes, GABAA1; format: cell-based; details: percentage potentiation of GABA EC10 current divided by that of diazepam
T2 construct: expressed in transfected cells; host or cells: Xenopus laevis oocytes injected with cRNA
T2 sequence (P14867 28-456): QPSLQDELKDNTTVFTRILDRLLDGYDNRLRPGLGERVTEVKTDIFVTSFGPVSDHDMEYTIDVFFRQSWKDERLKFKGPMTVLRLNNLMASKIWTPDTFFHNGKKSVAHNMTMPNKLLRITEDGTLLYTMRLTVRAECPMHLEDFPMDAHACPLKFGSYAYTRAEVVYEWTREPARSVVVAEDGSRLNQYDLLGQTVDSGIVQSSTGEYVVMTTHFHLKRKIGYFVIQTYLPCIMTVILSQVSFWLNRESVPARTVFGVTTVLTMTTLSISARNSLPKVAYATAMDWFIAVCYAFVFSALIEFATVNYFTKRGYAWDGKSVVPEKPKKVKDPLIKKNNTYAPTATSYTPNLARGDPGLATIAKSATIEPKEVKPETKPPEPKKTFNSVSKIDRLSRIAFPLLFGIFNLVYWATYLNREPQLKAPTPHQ
T2 sequence (P47870 25-512 partner limits assumed): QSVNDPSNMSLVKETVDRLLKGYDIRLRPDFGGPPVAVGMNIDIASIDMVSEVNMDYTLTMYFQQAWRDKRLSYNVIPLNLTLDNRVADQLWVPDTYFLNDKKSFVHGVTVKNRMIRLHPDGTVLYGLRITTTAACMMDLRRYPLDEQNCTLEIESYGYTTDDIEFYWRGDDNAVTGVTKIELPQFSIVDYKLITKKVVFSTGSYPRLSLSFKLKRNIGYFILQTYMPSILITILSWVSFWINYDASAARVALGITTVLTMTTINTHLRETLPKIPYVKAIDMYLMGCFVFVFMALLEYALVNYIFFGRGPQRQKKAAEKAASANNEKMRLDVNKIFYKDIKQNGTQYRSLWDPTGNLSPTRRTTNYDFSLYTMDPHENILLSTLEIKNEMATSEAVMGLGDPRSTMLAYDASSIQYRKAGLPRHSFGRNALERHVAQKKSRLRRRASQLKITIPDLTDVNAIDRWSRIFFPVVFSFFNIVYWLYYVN
T2 sequence (P18507 40-475): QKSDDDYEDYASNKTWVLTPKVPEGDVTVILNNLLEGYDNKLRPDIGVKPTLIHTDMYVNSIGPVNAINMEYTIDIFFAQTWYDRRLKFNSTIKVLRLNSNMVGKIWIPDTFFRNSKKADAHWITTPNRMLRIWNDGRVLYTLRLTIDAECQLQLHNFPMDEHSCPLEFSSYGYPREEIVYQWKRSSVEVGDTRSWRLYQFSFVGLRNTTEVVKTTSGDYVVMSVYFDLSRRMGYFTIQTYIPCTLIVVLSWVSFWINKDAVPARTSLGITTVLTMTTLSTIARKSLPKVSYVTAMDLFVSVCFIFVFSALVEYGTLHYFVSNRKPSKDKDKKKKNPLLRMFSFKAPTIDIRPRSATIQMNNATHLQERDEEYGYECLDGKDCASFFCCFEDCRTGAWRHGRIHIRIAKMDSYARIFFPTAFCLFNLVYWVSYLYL
How it was run: (§1)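 Human GABAA receptors expressed in Xenopus oocytes by cRNA injection (α:β:γ molar ratio ~1:1:10 for α1β2γ2, 1:1:1 for α2β3γ2), recorded 2-10 days later by two-electrode voltage clamp at −60 mV in ND-96, pH 7.5. Modulator preapplied 30 s before GABA at per-oocyte EC10. Peak-current percent potentiation over GABA alone, normalised to diazepam.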

[3] = target: T3, GABAA receptor α2β3γ2 (Homo sapiens, UniProt P18507+P47869); experiment: Two-electrode voltage-clamp potentiation of GABA EC10 current in Xenopus oocytes, GABAA2; format: cell-based; details: percentage potentiation of GABA EC10 current divided by that of diazepam
T3 construct: expressed in transfected cells; host or cells: Xenopus laevis oocytes injected with cRNA
T3 sequence (P47869 29-451): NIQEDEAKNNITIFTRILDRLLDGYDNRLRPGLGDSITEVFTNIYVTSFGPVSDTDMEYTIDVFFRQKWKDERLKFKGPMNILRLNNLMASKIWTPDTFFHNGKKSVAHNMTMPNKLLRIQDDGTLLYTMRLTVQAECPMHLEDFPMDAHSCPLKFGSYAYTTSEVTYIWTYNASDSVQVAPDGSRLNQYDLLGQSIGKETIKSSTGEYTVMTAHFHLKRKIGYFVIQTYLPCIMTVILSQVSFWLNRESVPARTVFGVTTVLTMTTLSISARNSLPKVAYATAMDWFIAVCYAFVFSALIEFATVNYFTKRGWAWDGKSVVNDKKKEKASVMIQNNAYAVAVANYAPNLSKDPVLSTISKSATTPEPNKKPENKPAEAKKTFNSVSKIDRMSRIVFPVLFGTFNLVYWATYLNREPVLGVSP
T3 sequence (P28472 26-473 partner): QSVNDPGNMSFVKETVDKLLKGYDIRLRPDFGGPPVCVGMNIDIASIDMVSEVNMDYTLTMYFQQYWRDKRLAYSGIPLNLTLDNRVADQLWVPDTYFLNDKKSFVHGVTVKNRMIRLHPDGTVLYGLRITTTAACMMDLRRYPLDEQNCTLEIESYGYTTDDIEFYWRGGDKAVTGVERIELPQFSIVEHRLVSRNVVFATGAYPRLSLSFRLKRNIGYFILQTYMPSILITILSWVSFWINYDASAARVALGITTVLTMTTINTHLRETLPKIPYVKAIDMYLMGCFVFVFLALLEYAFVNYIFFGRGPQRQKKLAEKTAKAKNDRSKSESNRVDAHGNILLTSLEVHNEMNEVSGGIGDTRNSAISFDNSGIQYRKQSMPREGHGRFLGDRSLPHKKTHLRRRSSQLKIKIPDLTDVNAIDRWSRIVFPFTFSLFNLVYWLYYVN
T3 sequence (P18507 40-475): as the sequence (P18507 40-475) above
How it was run: as §1

T1 sequence (P47869 29-451): as the sequence (P47869 29-451) above
T1 sequence (P28472 26-473 partner): as the sequence (P28472 26-473 partner) above
T1 sequence (P18507 40-475): as the sequence (P18507 40-475) above

SMILES	Ki [1] [nM]	Relative Potentiation for GABAA1 [2]	Relative Potentiation for GABAA2 [3]
CCCN1Cc2nc3c(-c4ccc(OC)nc4OC)cccc3c(N)c2C1=O [Example 9, 9-Amino-5-(2,6-dimethoxypyridin-3-yl)-2-propyl-2,3-dihydropyrrolo[3,4-b]quinolin-1-one]	28.1	0.068	0.31
CCCN1Cc2nc3c(-c4cnccc4OC)cccc3c(N)c2C1=O [9-amino-5-(4-methoxypyridin-3-yl)-2-propyl-2,3-dihydro-1H-pyrrolo[3,4-b]quinolin-1-one]	39.2	0.39	0.62
COc1ncccc1-c1cccc2c(N)c3c(nc12)CN(C1CC1)C3=O [Example 66, 9-Amino-2-cyclopropyl-5-(2-methoxypyridin-3-yl)-2,3-dihydropyrrolo[3,4-b]quinolin-1-one]	35.1	0.056	0.33
Nc1c2c(nc3c(-c4cccnc4F)c(F)ccc13)CN(C1CCC1)C2=O [9-Amino-2-cyclobutyl-6-fluoro-5-(2-fluoropyridin-3-yl)-2,3-dihydropyrrolo[3,4-b]quinolin-1-one]	0.246	0.018	0.19
COc1cccc(C#N)c1-c1cccc2c(N)c3c(nc12)CN(C1CCC1)C3=O [2-(9-Amino-2-cyclobutyl-1-oxo-2,3-dihydro-1H-pyrrolo[3,4-b]quinolin-5-yl)-3-methoxybenzonitrile]	5.46	−0.043	0.21
CCCN1Cc2nc3c(-c4cccnc4C)cccc3c(N)c2C1=O [9-amino-5-(2-methylpyridin-3-yl)-2-propyl-2,3-dihydro-1H-pyrrolo[3,4-b]quinolin-1-one]	11.4	0.22	0.26
COc1ncc(-c2c(F)ccc3c(N)c4c(nc23)CN(C2CC2)C4=O)c(OC)n1 [Example 44, 9-Amino-2-cyclopropyl-5-(2,4-dimethoxypyrimidin-5-yl)-6-fluoro-2,3-dihydropyrrolo[3,4-b]quinolin-1-one]	6.64	0.13	0.35
Nc1c2c(nc3c(-c4cc(Cl)ccc4Cl)cccc13)CN(C1CC1)C2=O [Example 59, 9-Amino-2-cyclopropyl-5-(2,5-dichlorophenyl)-2,3-dihydropyrrolo[3,4-b]quinolin-1-one]	11.4	0.094	0.25
CCCN1Cc2nc3c(-c4ccc(F)nc4C)cccc3c(N)c2C1=O [9-amino-5-(6-fluoro-2-methylpyridin-3-yl)-2-propyl-2,3-dihydro-1H-pyrrolo[3,4-b]quinolin-1-one]	22.3	1.7	0.48
CCCN1Cc2nc3c(-c4cccc(OC)c4)cccc3c(N)c2C1=O [9-amino-5-(3-methoxyphenyl)-2-propyl-2,3-dihydro-1H-pyrrolo[3,4-b]quinolin-1-one]	62.9	0.31	0.3
Nc1c2c(nc3c(-c4cc(F)ccc4F)cccc13)CN(C1CC1)C2=O [Example 112, 9-Amino-2-cyclopropyl-5-(2,5-difluorophenyl)-2,3-dihydropyrrolo[3,4-b]quinolin-1-one]	6.83	−0.034	0.13
COc1ccc(-c2c(F)ccc3c(N)c4c(nc23)CN(C2CCC2)C4=O)c(C)n1 [9-Amino-2-cyclobutyl-6-fluoro-5-(6-methoxy-2-methylpyridin-3-yl)-2,3-dihydropyrrolo[3,4-b]quinolin-1-one]	1.14	0.042	0.19
COc1ccc(CN2Cc3nc4c(-c5c(F)cccc5OC)cccc4c(N)c3C2=O)cc1Cl [9-Amino-2-(3-chloro-4-methoxybenzyl)-5-(2-fluoro-6-methoxyphenyl)-2,3-dihydropyrrolo[3,4-b]quinolin-1-one]	10.3	0.088	0.15
COc1cccc(F)c1-c1c(F)ccc2c(N)c3c(nc12)CN(C1CC1)C3=O [Example 35, 9-Amino-2-cyclopropyl-6-fluoro-5-(2-fluoro-6-methoxyphenyl)-2,3-dihydropyrrolo[3,4-b]quinolin-1-one]	2.59	−0.075	0.24
COc1ccccc1-c1c(F)ccc2c(N)c3c(nc12)CN(C1CC1)C3=O [9-Amino-2-cyclopropyl-6-fluoro-5-(2-methoxyphenyl)-2,3-dihydropyrrolo[3,4-b]quinolin-1-one]	3.72	0.02	0.2
CCCN1Cc2nc3c(-c4cc(Cl)ccc4OC)cccc3c(N)c2C1=O [9-amino-5-(5-chloro-2-methoxyphenyl)-2-propyl-2,3-dihydro-1H-pyrrolo[3,4-b]quinolin-1-one]	39.6	0.36	0.54
COc1ccncc1-c1c(F)ccc2c(N)c3c(nc12)CN(C1CC1)C3=O [Example 41, 9-Amino-2-cyclopropyl-6-fluoro-5-(4-methoxypyridin-3-yl)-2,3-dihydropyrrolo[3,4-b]quinolin-1-one]	2.35	0.13	0.28
COc1ccc(CN2Cc3nc4c(-c5ccc(-c6ccc(Cl)nc6)nc5)cccc4c(N)c3C2=O)cc1OC [9-amino-5-(6′-chloro-2,3′-bipyridin-5-yl)-2-(3,4-dimethoxybenzyl)-2,3-dihydro-1H-pyrrolo[3,4-b]quinolin-1-one]	20.4	−0.048	0.023
Nc1c2c(nc3c(-c4ccc(F)nc4F)cccc13)CN(C1CCC1)C2=O [9-Amino-2-cyclobutyl-5-(2,6-difluoropyridin-3-yl)-2,3-dihydropyrrolo[3,4-b]quinolin-1-one]	0.732	0.033	0.21
CCCN1Cc2nc3c(-c4cc(C)nn4C)cccc3c(N)c2C1=O [9-amino-5-(1,3-dimethyl-1H-pyrazol-5-yl)-2-propyl-2,3-dihydro-1H-pyrrolo[3,4-b]quinolin-1-one]	21.5	0.49	0.57
CCN1Cc2nc3c(-c4c(F)cccc4OC)c(F)ccc3c(N)c2C1=O [9-Amino-2-ethyl-6-fluoro-5-(2-fluoro-6-methoxyphenyl)-2,3-dihydropyrrolo[3,4-b]quinolin-1-one]	3.47	−0.12	0.093
COc1ccc(-c2c(F)ccc3c(N)c4c(nc23)CN(C2CC2)C4=O)c(F)c1 [9-amino-2-cyclopropyl-6-fluoro-5-(2-fluoro-4-methoxyphenyl)-2,3-dihydro-1H-pyrrolo[3,4-b]quinolin-1-one]	7.27	−0.036	0.055
